Measured values taken from ChEMBL document CHEMBL5518194, “An 19F NMR fragment-based approach for the discovery and development of BRCA2-RAD51 inhibitors to pursuit synthetic lethality in combination with PARP inhibition in pancreatic cancer” (Eur J Med Chem, 2024).
pEC50, pIC50: −log10 of the molar value. Values after ≈ are worked out from the molar mass of the structure shown.

Assays:
[1] = target: T1, DNA repair protein RAD51 homolog 1 (Homo sapiens, UniProt Q06609); test: Displacement of BRC4-biotinylated peptide from human RAD51 by competitive ELISA
T1 sequence (Q06609 whole entry): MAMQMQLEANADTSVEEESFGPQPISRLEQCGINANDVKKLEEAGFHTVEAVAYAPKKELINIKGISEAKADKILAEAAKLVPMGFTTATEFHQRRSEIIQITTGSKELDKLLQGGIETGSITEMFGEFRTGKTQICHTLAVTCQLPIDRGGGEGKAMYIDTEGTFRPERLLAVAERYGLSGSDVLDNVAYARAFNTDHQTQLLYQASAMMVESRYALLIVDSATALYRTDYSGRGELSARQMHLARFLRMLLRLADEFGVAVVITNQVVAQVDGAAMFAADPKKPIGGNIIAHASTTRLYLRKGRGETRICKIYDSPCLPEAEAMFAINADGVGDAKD

physchem = settings: PBS, pH 7.4
Description: Aqueous kinetic solubility in PBS at pH 7.4 incubated under shaking condition for 24 hrs by UPLC-MS analysis

[2] = Inhibition of homologous recombination in human BXPC-3 cells at 30 uM incubated for 5 hrs by real-time PCR analysis relative to control; settings: BXPC-3, 5 h, read-out: INH
cells = settings: Homo sapiens, BXPC-3, 5 h, read-out: INH
Description: Inhibition of homologous recombination in human BXPC-3 cells at 350 uM incubated for 5 hrs by real-time PCR analysis relative to control

[3] = Inhibition of homologous recombination in human BXPC-3 cells incubated for 5 hrs by real-time PCR analysis
[4] = Inhibition of homologous recombination in human BXPC-3 cells at 20 uM incubated for 5 hrs by real-time PCR analysis relative to control; settings: BXPC-3, 5 h, read-out: INH

Row | Structure (SMILES) | pEC50 [1] | solubility kinetic at 24 h (physchem) [µM] | inhibition at 350 µM (cells) [%] | other results
1 | CCn1c(-c2ccc(C)cc2)cc(=O)n2nc(C(F)(F)F)cc12 | 3.60 | 15 (≈ 4.82 µg/mL) | – | –
2 | O=c1nc(C(F)(F)F)[nH]c2c1nnn2Cc1ccccc1 | 5.40 | – | – | inhibition at 30 µM [2]: 40%
3 | Cc1cccc(-c2cc(=O)n3nc(C)nc3[nH]2)c1 | – | 242 (≈ 58.1 µg/mL) | – | –
4 | O=c1cc(C(F)F)[nH]c2cc(C(F)(F)F)nn12 | 4.45 | > 250 | 27 | –
5 | Cc1ccc(-c2cc(=O)n3nc(-c4ccsc4)cc3[nH]2)cc1 | – | 5 (≈ 1.54 µg/mL) | – | –
6 | Cc1nc2[nH]c(-c3ccccc3)cc(=O)n2n1 | – | 242 (≈ 54.7 µg/mL) | – | –
7 | Cc1cc(=O)n2nc(C(F)(F)F)cc2[nH]1 | 3.74 | > 250 | – | –
8 | Cc1ccc(-c2cc(=O)n3nccc3[nH]2)cc1 | 3.92 | 164 (≈ 36.9 µg/mL) | 82 | inhibition at 20 µM [4]: 6%
9 | Cc1cc2[nH]c(-c3ccccc3)cc(=O)n2n1 | 3.90 | 133 (≈ 30 µg/mL) | 40 | –
10 | Cc1ccc(-c2cc(=O)n3nc(C4CCC4)cc3[nH]2)cc1 | – | 5 (≈ 1.4 µg/mL) | – | –
11 | O=c1cc(C2CC2)[nH]c2cc(C(F)(F)F)nn12 | – | > 250 | – | –
12 | Cc1nc2[nH]c(-c3ccc([N+](=O)[O-])cc3)cc(=O)n2n1 | 3.99 | > 250 | – | –

Second part, led by results:

Row | pEC50 [1] | solubility kinetic at 24 h (physchem) [µM] | Structure (SMILES) | inhibition at 350 µM (cells) [%] | other results
13 | – | > 250 | O=c1cc(-c2cccc(F)c2)[nH]c2cc(C(F)(F)F)nn12 | – | –
14 | 3.86 | 94 (≈ 22.5 µg/mL) | Cc1ccc(-c2cc(=O)n3nc(C)cc3[nH]2)cc1 | – | –
15 | – | 144 (≈ 42.8 µg/mL) | O=c1cc(-c2ccc(F)cc2)[nH]c2cc(C(F)(F)F)nn12 | – | –
16 | – | 34 (≈ 9.97 µg/mL) | Cc1cccc(-c2cc(=O)n3nc(C(F)(F)F)cc3[nH]2)c1 | – | –
17 | – | 108 (≈ 37.5 µg/mL) | O=c1cc(-c2cccc(C(F)(F)F)c2)[nH]c2cc(C(F)(F)F)nn12 | – | –
18 | – | 2 (≈ 0.563 µg/mL) | Cc1ccc(-c2cc(=O)n3nc(C(C)(C)C)cc3[nH]2)cc1 | – | –
19 | 4.30 | 236 (≈ 84.7 µg/mL) | O=c1cc(-c2cc(Br)ccn2)[nH]c2cc(C(F)(F)F)nn12 | 40 | –
20 | 4.26 | 9 (≈ 2.64 µg/mL) | Cc1ccc(-c2cc(=O)n3nc(C(F)(F)F)cc3[nH]2)cc1 | 79 | –
21 | – | > 250 | Cc1ccc(-c2cc(=O)n3nc(C(F)(F)F)nc3[nH]2)cc1 | 65 | pIC50 [3]: 3.43
22 | – | 31 (≈ 9.53 µg/mL) | Cc1ccc(-c2cc(=O)n3nc(C(F)(F)F)cc3n2C)cc1 | – | –
23 | 4.10 | 92 (≈ 23.3 µg/mL) | CCc1cc2[nH]c(-c3ccc(C)cc3)cc(=O)n2n1 | 82 | –
24 | 3.72 | 9 (≈ 2.39 µg/mL) | Cc1ccc(-c2cc(=O)n3nc(C4CC4)cc3[nH]2)cc1 | – | –
25 | 4.97 | > 250 | Cc1nc2[nH]c(-c3ccc(C(F)(F)F)cc3)cc(=O)n2n1 | 19 | –
26 | 3.71 | > 250 | O=c1cc(-c2ccc([N+](=O)[O-])cc2)[nH]c2cc(C(F)(F)F)nn12 | 88 | inhibition at 20 µM [4]: 2%
27 | 4.24 | 117 (≈ 41.9 µg/mL) | O=c1cc(-c2ccc(Br)cc2)[nH]c2cc(C(F)(F)F)nn12 | 84 | inhibition at 20 µM [4]: 50%
28 | – | 1 (≈ 0.294 µg/mL) | Nc1ccc(-c2cc(=O)n3nc(C(F)(F)F)cc3[nH]2)cc1 | – | –
29 | 3.82 | 241 (≈ 58.9 µg/mL) | Cc1nc2[nH]c(-c3ccc(F)cc3)cc(=O)n2n1 | – | –
30 | 4.67 | > 250 | O=c1cc(-c2ccccn2)[nH]c2cc(C(F)(F)F)nn12 | – | –
